In patent US12173007B2, “Imidazopyridazine IL-17 inhibitor compounds” (Janssen Pharmaceutica NV, priority 2021, dated 2024) one finds IC50 data, which are given here for 16 compounds.

The target in assay [1] is IL-17A(FLAG-Tagged): IL-17RA(His-Tagged) binding (Homo sapiens, UniProt Q16552, K93Q). Kind of assay: IL-17A(FLAG-tagged):IL-17RA(His-tagged) binding disruption Eu-HTRF assay, Protocol 1. Particulars: FLAG-IL-17A 2.5 nM; average if tested more than once. The source says:
IL-17A(FLAG-Tagged): IL-17RA(His-Tagged) Binding Disruption Eu-HTRF Assay
An antibody directed against the FLAG tag of IL-17A (SEQ ID NO: 1) is labeled with the HTRF donor chromophore (Europium-cryptate). IL-17A is present as a dimer that is “locked into” this quaternary structure due to the formation of loop-spanning […] disulfide bridges. The construct of IL-17RA used in the assay excludes the […] portion of the receptor and is fused to a C-terminal 10×His tag (SEQ ID NO:2). An antibody directed against the His tag of the IL-17RA chimera is labeled with the HTRF acceptor chromophore (“D2”). The fluorescence-resonance energy transfer (FRET) depends on the vicinity of the donor chromophore to the acceptor, and interruption of the binding between the IL-17A and IL-17RA causes the reduction/loss of FRET. Therefore, this assay allows to evaluate the compound effect on the binding IL-17A and IL-17RA by monitoring the fluorescence intensity of donor vs acceptor. The assay was run using either Protocol 1 or Protocol 2 as described below.
Protocol 1. 40 nl of 2-fold serial diluted compound solution for total 22 dilution points is added into each well of a 1536-well, white, low-volume, non-binding plate (Greiner #782904), then 2 μl of FLAG tagged IL-17A at 2×final concentration (2.5 nM) in solution of PBS+0.01% Triton-X100 is added to each well. The assay plate is briefly centrifuged then incubated for 1 h at rt. A mixed solution is prepared containing 2×5 nM 10HIS×IL-17RA, 2×2.5 nM Eu-anti-FLAG (CISBIO), 2×5 nM D2-anti-HIS (CISBIO) in PBS+0.01% Triton-X100+200 mM Potassium Fluoride (Sigma 60238) and 2 μl of mix is added to each well of the assay plate. The plate is briefly centrifuged then incubated for 2 h at rt. The HTRF intensities at the wavelength of donor (620 nm) and acceptor (665 nm) are measured using BMG Pherastar. The ratio between intensities at two wavelengths is calculated and plotted against the compound concentration and the data is fitted to a one-site competition model to yield IC50 of the compound.
In general terms: In TR-FRET formats the signal depends on donor and acceptor labels being close together.

Assay [2] has as its system IL-17A-induced G-CSF production in human normal keratinocyte (NHK). Description: NHK assay: IL-17A-induced G-CSF production in normal human keratinocytes. The conditions noted are these: 24 h, IL-17A 5 ng/mL, G-CSF by HTRF, average if tested more than once. The format is cell-based. The procedure, abridged: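 Stimulus rhIL-17A 5 ng/mL final, premixed 1 h rt with compound; adult NHK, 5% FBS, 0.2% DMSO. Viability by CellTiter-Glo vs DMSO.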

Chain of UniProt Q16552 (Q16552 with tags, fused parts or gaps K93Q): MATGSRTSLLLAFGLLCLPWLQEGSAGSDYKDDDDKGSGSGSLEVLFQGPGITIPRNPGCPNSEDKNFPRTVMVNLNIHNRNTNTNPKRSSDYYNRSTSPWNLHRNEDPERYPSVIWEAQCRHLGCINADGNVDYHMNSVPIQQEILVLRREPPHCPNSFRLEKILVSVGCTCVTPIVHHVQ

For the compound `CC1CNC(=O)N(Cc2cnn3cc([C@@H](NC(=O)c4nonc4C4CC4)C4CCC(F)(F)CC4)nc3c2)C1` (single isomer, unassigned) [Example 28, 4-Cyclopropyl-N—((S)-(4,4-difluorocyclohexyl)(7-(((S*)-5-methyl-2-oxotetrahydropyrimidin-1(2H)-yl)methyl)imidazo[1,2-b]pyridazin-2-yl)methyl)-1,2,5-oxadiazole-3-carboxamide], the IC50 in assay [1] was < 50 nM; in assay [2] (Homo sapiens, Keratinocyte), > 100 nM.

Turning to `CC1CNC(=O)N(Cc2cnn3cc([C@@H](NC(=O)c4nonc4C4CC4)C4CCC(F)(F)CC4)nc3c2)C1` (single isomer, unassigned) [Example 29, 4-Cyclopropyl-N—((S)-(4,4-difluorocyclohexyl)(7-(((R*)-5-methyl-2-oxotetrahydropyrimidin-1(2H)-yl)methyl)imidazo[1,2-b]pyridazin-2-yl)methyl)-1,2,5-oxadiazole-3-carboxamide], the IC50 in assay [1] and in assay [2] was > 100 nM throughout.

With `O=C(N[C@H](c1cn2ncc(CN3CCCCNC3=O)cc2n1)C1CCC(F)(F)CC1)c1nonc1C1CC1` [Example 30, (S)-4-Cyclopropyl-N-((4,4-difluorocyclohexyl)(7-((2-oxo-1,3-diazepan-1-yl)methyl)imidazo[1,2-b]pyridazin-2-yl)methyl)-1,2,5-oxadiazole-3-carboxamide], the IC50 is 50 to 100 nM in assay [1] and > 100 nM in assay [2] (Homo sapiens, Keratinocyte).

In the case of `O=C(N[C@H](c1cn2ncc([C@@H](C3CC3)N3CC(F)(F)CNC3=O)cc2n1)C1CCC(F)(F)CC1)c1nonc1C1CC1` [Example 7, 4-Cyclopropyl-N—((S)-(7-((R)-cyclopropyl(5,5-difluoro-2-oxotetrahydropyrimidin-1(2H)-yl)methyl)imidazo[1,2-b]pyridazin-2-yl)(4,4-difluorocyclohexyl)methyl)-1,2,5-oxadiazole-3-carboxamide], the IC50 was < 50 nM in assay [1] and < 50 nM in assay [2] (Homo sapiens, Keratinocyte).

As for `COC[C@H](c1cnn2cc([C@@H](NC(=O)c3ccnn3C(C)C)C3CCC(F)(F)CC3)nc2c1)N1CC(F)(F)CNC1=O` [Example 14, N—((S)-(7-((S)-1-(5,5-Difluoro-2-oxotetrahydropyrimidin-1(2H)-yl)-2-methoxyethyl)imidazo[1,2-b]pyridazin-2-yl)(4,4-difluorocyclohexyl)methyl)-1-isopropyl-1H-pyrazole-5-carboxamide], the IC50 in assay [1] was 50 to 100 nM; in assay [2] (Homo sapiens, Keratinocyte) it was < 50 nM.

On to `[2H]C([2H])([2H])C([2H])([2H])n1nccc1C(=O)N[C@H](c1cn2ncc(CN3CC(F)(F)CNC3=O)cc2n1)C1CCC(F)(F)CC1` [Example 25, (S)—N-((7-((5,5-Difluoro-2-oxotetrahydropyrimidin-1(2H)-yl)methyl)imidazo[1,2-b]pyridazin-2-yl)(4,4-difluorocyclohexyl)methyl)-1-(ethyl-d5)-1H-pyrazole-5-carboxamide], for which the IC50 in assay [1] was 50 to 100 nM; in assay [2] (Homo sapiens, Keratinocyte), < 50 nM.

`CC(C)n1nccc1C(=O)N[C@H](c1cn2ncc(CN3CC(F)(F)CNC3=O)cc2n1)C1CCC(F)(F)CC1` [Example 21, (S)—N-((7-((5,5-Difluoro-2-oxotetrahydropyrimidin-1(2H)-yl)methyl)imidazo[1,2-b]pyridazin-2-yl)(4,4-difluorocyclohexyl)methyl)-1-isopropyl-1H-pyrazole-5-carboxamide]: the IC50 in assay [1] is > 100 nM; in assay [2] (Homo sapiens, Keratinocyte), < 50 nM.

As for `O=C(N[C@H](c1cn2ncc(CN3CC(F)(F)CNC3=O)cc2n1)C1CCC(F)(F)CC1)c1cnn(CCC(F)(F)F)n1` [Example 27, (S)—N-((7-((5,5-Difluoro-2-oxotetrahydropyrimidin-1(2H)-yl)methyl)imidazo[1,2-b]pyridazin-2-yl)(4,4-difluorocyclohexyl)methyl)-2-(3,3,3-trifluoropropyl)-2H-1,2,3-triazole-4-carboxamide], the IC50 is > 100 nM in assay [1] and > 100 nM in assay [2] (Homo sapiens, Keratinocyte).

As to `CC1CCCN(Cc2cnn3cc([C@@H](NC(=O)c4nonc4C4CC4)C4CCC(F)(F)CC4)nc3c2)C(=O)N1` (single isomer, unassigned) [Example 96, 4-Cyclopropyl-N—((S)-(4,4-difluorocyclohexyl)(7-(((R*)-4-methyl-2-oxo-1,3-diazepan-1-yl)methyl)imidazo[1,2-b]pyridazin-2-yl)methyl)-1,2,5-oxadiazole-3-carboxamide], the IC50 in assay [1] is < 50 nM; in assay [2] (Homo sapiens, Keratinocyte), > 100 nM.

Consider `O=C(N[C@H](c1cn2ncc(CN3CC(C(F)(F)F)CNC3=O)cc2n1)C1CCC(F)(F)CC1)c1nonc1C1CC1` (single isomer, unassigned) [Example 5, 4-Cyclopropyl-N—((S)-(4,4-difluorocyclohexyl)(7-(((S*)-2-oxo-5-(trifluoromethyl)tetrahydropyrimidin-1(2H)-yl)methyl)imidazo[1,2-b]pyridazin-2-yl)methyl)-1,2,5-oxadiazole-3-carboxamide], for which the IC50 in assay [1] is < 50 nM; in assay [2], 50 to 100 nM.

For `CC1(C)CNC(=O)N(Cc2cnn3cc([C@@H](NC(=O)c4nonc4C4CC4)C4CCC(F)(F)CC4)nc3c2)C1` [Example 33, (S)-4-Cyclopropyl-N-((4,4-difluorocyclohexyl)(7-((5,5-dimethyl-2-oxotetrahydropyrimidin-1(2H)-yl)methyl)imidazo[1,2-b]pyridazin-2-yl)methyl)-1,2,5-oxadiazole-3-carboxamide], the IC50 was 50 to 100 nM in assay [1] and > 100 nM in assay [2] (Homo sapiens, Keratinocyte).

On to `N#CC1([C@H](c2cnn3cc([C@@H](NC(=O)c4nonc4C4CC4)C4CCC(F)(F)CC4)nc3c2)N2CC(F)(F)CNC2=O)CCC1` [Example 85, N—((S)-(7-((S)-(1-Cyanocyclobutyl)(5,5-difluoro-2-oxotetrahydropyrimidin-1(2H)-yl)methyl)imidazo[1,2-b]pyridazin-2-yl)(4,4-difluorocyclohexyl)methyl)-4-cyclopropyl-1,2,5-oxadiazole-3-carboxamide], for which the IC50 in assay [1] is < 50 nM; in assay [2] (Homo sapiens, Keratinocyte), > 100 nM.

For `O=C(N[C@H](c1cn2ncc(CN3CC(F)(F)CNC3=O)cc2n1)C1CCC(F)(F)CC1)c1nonc1OCC(F)F` [Example 26, (S)—N-((7-((5,5-Difluoro-2-oxotetrahydropyrimidin-1(2H)-yl)methyl)imidazo[1,2-b]pyridazin-2-yl)(4,4-difluorocyclohexyl)methyl)-4-(2,2-difluoroethoxy)-1,2,5-oxadiazole-3-carboxamide], the IC50 was < 50 nM in assay [1] and < 50 nM in assay [2] (Homo sapiens, Keratinocyte).

For `[2H]C([2H])([2H])C([2H])([2H])n1nccc1C(=O)N[C@H](c1cn2ncc([C@@H](C3CC3)N3CC(F)(F)CNC3=O)cc2n1)C1CCC(F)(F)CC1` [Example 9, N—((S)-(7-((R)-Cyclopropyl(5,5-difluoro-2-oxotetrahydropyrimidin-1(2H)-yl)methyl)imidazo[1,2-b]pyridazin-2-yl)(4,4-difluorocyclohexyl)methyl)-1-(ethyl-d5)-1H-pyrazole-5-carboxamide], the IC50 in assay [1] is < 50 nM; in assay [2] (Homo sapiens, Keratinocyte) it was < 50 nM.

For the compound `CC1(F)CNC(=O)N(Cc2cnn3cc([C@@H](NC(=O)c4nonc4C4CC4)C4CCC(F)(F)CC4)nc3c2)C1` (single isomer, unassigned) [Example 2, 4-Cyclopropyl-N—((S)-(4,4-difluorocyclohexyl)(7-(((S*)-5-fluoro-5-methyl-2-oxotetrahydropyrimidin-1(2H)-yl)methyl)imidazo[1,2-b]pyridazin-2-yl)methyl)-1,2,5-oxadiazole-3-carboxamide], the values for the IC50 in assay [1] and in assay [2] were 50 to 100 nM and > 100 nM, respectively.

For `CC1CCCN(Cc2cnn3cc([C@@H](NC(=O)c4nonc4C4CC4)C4CCC(F)(F)CC4)nc3c2)C(=O)N1` (single isomer, unassigned) [Example 97, 4-Cyclopropyl-N—((S)-(4,4-difluorocyclohexyl)(7-(((S*)-4-methyl-2-oxo-1,3-diazepan-1-yl)methyl)imidazo[1,2-b]pyridazin-2-yl)methyl)-1,2,5-oxadiazole-3-carboxamide], the IC50 in assay [1] was 50 to 100 nM; in assay [2], > 100 nM.

The IC50 is the concentration that inhibits the measured activity by half. High values mean weaker potency in that assay, low ones greater potency in that assay.
